{
  "source": "patent US6649355B2",
  "about": "“Lipoxygenase proteins and nucleic acids” (priority 1998, dated 2003)",
  "key": {"[1]": {"system": "peroxisome proliferator-activated receptor, PPAR-a", "conditions": "cited from earlier work"}, "[2]": {"target": "T1, 15-Lox-2 (second type of human 15S-lipoxygenase) (Homo sapiens, UniProt O15296, Q656R)", "T1 construct": "Initially, five full length clones were expressed in HEK 293 cells; expressed in transfected cells; host or cells: HEK 293 cells, transient transfection (pCDNA3 or pCR3); sonicated cells incubated with substrate", "T1 sequence (O15296 1-676 Q656R)": "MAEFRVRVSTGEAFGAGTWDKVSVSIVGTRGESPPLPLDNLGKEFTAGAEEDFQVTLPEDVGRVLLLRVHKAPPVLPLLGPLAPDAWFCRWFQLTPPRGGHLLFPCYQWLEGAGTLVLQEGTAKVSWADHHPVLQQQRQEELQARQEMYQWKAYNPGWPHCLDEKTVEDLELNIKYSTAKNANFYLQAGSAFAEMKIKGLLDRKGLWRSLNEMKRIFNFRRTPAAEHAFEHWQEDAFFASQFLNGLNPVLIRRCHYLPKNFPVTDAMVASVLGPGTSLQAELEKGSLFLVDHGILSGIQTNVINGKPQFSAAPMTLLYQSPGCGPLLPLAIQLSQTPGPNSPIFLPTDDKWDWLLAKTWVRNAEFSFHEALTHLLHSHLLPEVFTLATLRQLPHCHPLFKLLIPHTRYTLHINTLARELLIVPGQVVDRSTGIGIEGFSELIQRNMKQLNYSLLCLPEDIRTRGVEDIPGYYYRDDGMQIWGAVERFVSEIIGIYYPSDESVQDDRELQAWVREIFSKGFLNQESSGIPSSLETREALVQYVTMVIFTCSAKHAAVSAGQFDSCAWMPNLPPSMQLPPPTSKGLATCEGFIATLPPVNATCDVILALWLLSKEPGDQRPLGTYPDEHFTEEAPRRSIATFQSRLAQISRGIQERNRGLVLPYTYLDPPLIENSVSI", "assay": "Lipoxygenase metabolism of 14C substrates by the new 15S-lipoxygenase expressed in HEK 293 cells, HPLC analysis", "format": "biochemical", "conditions": "2 mM added; [14C]arachidonic acid as substrate", "description": "(§1) The PCR products corresponding to the open reading frame of the cDNA were subcloned into the pCDNA3 vector (Invitrogen), or in some experiments ligated directly into pCR3 (Invitrogen), and expressed by transient transfection in human embryonic kidney (HEK) 293 cells as described (Funk et al. (1996) J. Biol. Chem. 271, 23338-23344)."}, "[3]": {"system": "8S-lipoxygenase expression in mouse skin", "assay": "Effect of topical phorbol ester on 8S-lipoxygenase expression in mouse skin (activity assay, Northern, Western, immunohistochemistry)", "format": "in vivo", "conditions": "for induction of 8S-lipoxygenase in skin: black Swiss mixed breed (outbred) pups, dorsal skin, topical", "protocol": "FIG. 9A: Normal-phase HPLC analysis of 8S-lipoxygenase activity in homogenates of back skin of 7-8-day-old black Swiss pups following 24 hr treatment with vehicle (acetone) or phorbol ester ([…]).\nPhorbol ester (PMA, 10 nmol) dissolved in […] of acetone was applied topically onto dorsal skin of 6-7-day-old mice. At 21-24 h after PMA-treatment, the mice were euthanized, and epidermis was prepared from the frozen dorsal skin as previously described (Hughes et al. (1991) Biochim. Biophys. Acta 1081:347-354). The frozen epidermis was dropped into guanidinium thiocyanate solution, the lysis buffer from the RNeasy RNA extraction kit (QIAGEN). After a brief sonication using an ultrasonic probe (2 sec, twice), total RNA was extracted according to the manufacturer's instructions. Approximately […] of total RNA was recovered in […] of water. Twenty microliter aliquots were used in […] reactions for first strand cDNA synthesis using an oligo-dT-adaptor primer (Brash et al. (1996) J. Biol. Chem. 271:20949-20957). One microliter aliquots of CDNA were used directly in PCR reactions.\nPoly(A)+RNA was prepared from PMA- or acetone-treated frozen dorsal skin using TRI REAGENT® (Molecular Research Center, Inc.) and Oligotex™ (Qiagen) according to the manufacturers' instructions. The poly(A)^+ RNA was electrophoresed in 1% agarose/formaldehyde gel and blotted to a Hybond-H^+ nylon membrane (Amersham). The membrane was hybridized with ^32P-labeled DNA probe (complementary with a 0.6-kb EcoRV/BamHI fragment of mouse epidermal 8S-lipoxygenase) prepared using the Multiprime DNA labeling kit and Rapid-hybridization buffer (Amersham), and then washed according to the manufacturer's specifications. Blots were exposed to Fuji x-ray film at −80° C. Mouse cyclophilin cDNA was used as a house-keeping gene to access loading of RNA.\nAfter quantitation by Bradford assay (Bio-Rad), protein was separated by SDS polyacrylamide gel electrophoresis (SDS-PAGE) and then transferred electrophoretically to Hybond ECL nitrocellulose membranes (Amersham). These were probed using a rabbit polyclonal antibody raised against the human 15-Lox-2. This antibody recognises 15-Lox-2 and the mouse 8S-lipoxygenase, but not the human reticulocyte type of 15S-lipoxygenase, as more fully described below. Donkey anti-rabbit Ig linked with horseradish peroxidase (Amersham) was the secondary antibody. Specifically bound protein was detected by chemiluminescence using the ECL Western blotting detection reagents (Amersham).\nThe dorsal and tail skin of six to seven (6-7)-day-old mice were treated with acetone or PMA (10 nmol for dorsal skin, 2 nmol for tail skin). After 24 h, the animals were euthanized and the dorsal and tail skin were washed with soap and then rinsed thoroughly with water. […]"}, "[4]": {"target": "T2, mouse 8S-lipoxygenase (8-Lox) (Mus musculus, UniProt O35936)", "T2 sequence (O35936 1-677)": "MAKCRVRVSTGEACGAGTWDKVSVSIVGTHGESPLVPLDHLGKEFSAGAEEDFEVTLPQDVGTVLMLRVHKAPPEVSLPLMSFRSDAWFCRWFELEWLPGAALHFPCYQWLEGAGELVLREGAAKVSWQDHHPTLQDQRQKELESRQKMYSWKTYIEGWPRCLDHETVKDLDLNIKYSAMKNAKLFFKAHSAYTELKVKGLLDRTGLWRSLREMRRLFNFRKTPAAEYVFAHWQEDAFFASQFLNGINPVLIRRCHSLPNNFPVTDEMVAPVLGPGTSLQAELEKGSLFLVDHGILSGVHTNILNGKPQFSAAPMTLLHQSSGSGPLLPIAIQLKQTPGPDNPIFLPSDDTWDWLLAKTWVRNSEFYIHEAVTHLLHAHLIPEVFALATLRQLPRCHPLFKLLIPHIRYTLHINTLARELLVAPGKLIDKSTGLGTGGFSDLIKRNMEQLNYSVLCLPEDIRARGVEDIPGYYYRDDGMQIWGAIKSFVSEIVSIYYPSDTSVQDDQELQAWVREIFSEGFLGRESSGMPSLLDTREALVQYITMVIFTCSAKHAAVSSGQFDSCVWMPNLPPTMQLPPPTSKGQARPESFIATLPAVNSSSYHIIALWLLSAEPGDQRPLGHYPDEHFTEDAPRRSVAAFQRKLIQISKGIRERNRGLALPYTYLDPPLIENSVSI", "format": "biochemical"}, "[5]": {"target": "T3, blood cell 15S-lipoxygenase (15-Lox-1) (Homo sapiens, UniProt P16050)", "T3 construct": "expressed in transfected cells", "T3 sequence (P16050 1-662)": "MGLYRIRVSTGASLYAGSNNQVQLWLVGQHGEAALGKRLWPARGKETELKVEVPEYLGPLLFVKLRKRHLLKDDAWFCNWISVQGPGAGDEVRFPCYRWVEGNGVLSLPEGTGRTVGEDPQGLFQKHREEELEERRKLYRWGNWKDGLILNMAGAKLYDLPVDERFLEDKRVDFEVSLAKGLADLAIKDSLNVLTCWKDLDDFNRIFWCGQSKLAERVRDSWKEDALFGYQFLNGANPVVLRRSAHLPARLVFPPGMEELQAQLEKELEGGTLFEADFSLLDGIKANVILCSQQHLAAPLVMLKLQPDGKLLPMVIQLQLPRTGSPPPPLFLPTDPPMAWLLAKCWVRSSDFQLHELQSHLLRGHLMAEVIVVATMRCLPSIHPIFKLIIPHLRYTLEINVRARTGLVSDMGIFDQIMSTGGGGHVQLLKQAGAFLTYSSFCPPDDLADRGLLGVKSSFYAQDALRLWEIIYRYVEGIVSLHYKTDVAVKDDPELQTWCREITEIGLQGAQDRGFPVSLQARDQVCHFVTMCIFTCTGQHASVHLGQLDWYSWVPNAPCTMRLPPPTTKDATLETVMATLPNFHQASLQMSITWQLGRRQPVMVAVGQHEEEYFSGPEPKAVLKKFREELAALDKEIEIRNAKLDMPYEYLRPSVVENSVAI", "assay": "Lipoxygenase metabolism of 14C substrates by the blood cell 15S-lipoxygenase analysed in the same experiments", "format": "biochemical", "conditions": "applicants' experiments", "description": "as §1"}},
  "data": [
    {"smiles": "CCCCC/C=C\\C/C=C\\C=C\\[C@@H](O)C/C=C\\CCCC(=O)O", "note": "[8S-HETE]", "values": [
      {"measurement": "activity at PPAR-a", "setting": "[1]", "result": "strong activator"}
    ]},
    {"smiles": "Nc1ncnc2c1ncn2[C@@H]1O[C@H](COP(=O)(O)OP(=O)(O)OP(=O)(O)O)[C@@H](O)[C@H]1O", "note": "[ATP]", "values": [
      {"measurement": "effect of addition to the incubation media on enzymatic activity", "setting": "[2]", "result": "no significant effect"}
    ]},
    {"smiles": "CCCCCCCCCCCCCC(=O)O[C@@H]1[C@@H](C)[C@@]2(O)[C@@H](C=C(CO)C[C@]3(O)C(=O)C(C)=C[C@@H]23)[C@@H]2C(C)(C)[C@]12OC(C)=O", "note": "[PMA, Phorbol-12-myristate-13-acetate]", "values": [
      {"measurement": "induction of 8S-lipoxygenase activity in skin", "setting": "[3]; Sencar strain, 6-10-day-old pups, high constitutive activity", "result": "little extra induction"},
      {"measurement": "induction of 8S-lipoxygenase in skin", "setting": "[3]; 24 h", "result": "strongly induced"},
      {"measurement": "induction of 8S-lipoxygenase in skin", "setting": "[3]; 24 h, listed as phorbol ester", "result": "strong induction"},
      {"measurement": "histological response of skin (epidermis)", "setting": "[3]; black Swiss, dorsal and tail skin, topical in acetone, 24 h", "result": "marked hyperproliferative response"}
    ]},
    {"smiles": "CCCCC/C=C\\C/C=C\\C/C=C\\C/C=C\\CCCC(=O)O", "note": "[arachidonic acid]", "values": [
      {"measurement": "added arachidonic acid converted to 8S-HPETE", "setting": "[4]", "result": "30-40%"},
      {"measurement": "product formed from the substrate", "setting": "[4]", "result": "exclusively to 8S-hydroperoxyeicosatetraenoic acid"}
    ]},
    {"smiles": "[Ca+2]", "note": "[calcium]", "values": [
      {"measurement": "effect of addition to the incubation media on enzymatic activity", "setting": "[2]", "result": "no significant effect"}
    ]},
    {"smiles": "CCCCC/C=C\\C/C=C\\CCCCCCCC(=O)O", "note": "[linoleic acid]", "values": [
      {"measurement": "product formed from the substrate", "setting": "[4]", "result": "exclusively to 9S-HODE"},
      {"measurement": "extent of metabolism compared with arachidonic acid", "setting": "[5]", "result": "metabolized more extensively than arachidonic acid"}
    ]}
  ]
}
